The values that follow come from ChEMBL document CHEMBL3044717, “Synthesis and QSAR modeling 1-[3-methyl-2-(aryldiazenyl)-2H-aziren-2-yl]ethanones as potential antibacterial agents” (2013).

What all share (assay type): functional
For one assay, the system named is Staphylococcus aureus. The assay can be described thus: Antibacterial activity against Staphylococcus aureus ATCC 2943 assessed as growth inhibition after 16-24 hr by two-fold serial dilution method.
The next assay concerns Bacillus subtilis. The assay can be described thus: Antibacterial activity against Bacillus subtilis ATCC 6633 assessed as growth inhibition after 16-24 hr by two-fold serial dilution method.
The subject of the next assay is Brevundimonas diminuta. Nature of the assay: Antibacterial activity against Brevundimonas diminuta MTCC 3361 assessed as growth inhibition after 16-24 hr by two-fold serial dilution method.
The test system of another assay is Escherichia coli. The assay can be described thus: Antibacterial activity against Escherichia coli ATCC 13607 assessed as growth inhibition after 16-24 hr by two-fold serial dilution method.

SMILES strings stand for the structures.

For the molecule `CC(=O)C1(/N=N/c2ccc(C)cc2)N=C1C` (configuration not stated), the “-logMIC” value came to 4.178 with Staphylococcus aureus and 4.298 in the assay on Bacillus subtilis.
Take `CC(=O)C1(/N=N/c2cccc(C(=O)O)c2)N=C1C` (configuration not stated): the “-logMIC” value is 4.178 in the assay on Staphylococcus aureus, 4.138 in the assay with Brevundimonas diminuta, 4.223 in the assay with Escherichia coli and 4.446 in the assay on Bacillus subtilis.
In the case of `CC(=O)C1(/N=N/c2cccc([N+](=O)[O-])c2)N=C1C` (configuration not stated), the “-logMIC” value is reported as 4.421 in the assay with Staphylococcus aureus, 4.336 in the assay on Brevundimonas diminuta, 4.257 in the assay with Escherichia coli and 4.245 in the assay on Bacillus subtilis.
For `COc1ccccc1/N=N/C1(C(C)=O)N=C1C` (configuration not stated), the “-logMIC” value in the assay on Staphylococcus aureus turned out to be 4.119; with Brevundimonas diminuta it was 4.072; with Bacillus subtilis it was 4.056.
The like results for `CC(=O)C1(/N=N/c2ccccc2)N=C1C` (configuration not stated) were, in that order, 4.032, 4.024 and 4.026.
In the case of `CC(=O)C1(/N=N/c2ccccc2C)N=C1C` (configuration not stated), the figures for the “-logMIC” value in the assay on Staphylococcus aureus, in the assay with Escherichia coli and in the assay with Bacillus subtilis were 4.339, 4.378 and 4.378, respectively.
As for `CC(=O)C1(/N=N/c2ccc(C(=O)O)cc2)N=C1C` (configuration not stated), the “-logMIC” value in the assay with Staphylococcus aureus is listed as 4.358; with Brevundimonas diminuta it was 4.243; in the assay on Escherichia coli it was 4.341; in the assay on Bacillus subtilis it was 4.376.
With `CC(=O)C1(/N=N/c2ccc(Br)cc2)N=C1C` (configuration not stated), the “-logMIC” value turned out to be 4.433 in the assay with Staphylococcus aureus, 4.414 in the assay with Escherichia coli and 4.401 with Bacillus subtilis.
Take `CC(=O)C1(/N=N/c2ccccc2Cl)N=C1C` (configuration not stated): the “-logMIC” value stood at 4.317 in the assay on Staphylococcus aureus, 4.354 with Brevundimonas diminuta and 4.348 in the assay on Bacillus subtilis.
Regarding `CC(=O)C1(/N=N/c2ccc([N+](=O)[O-])cc2)N=C1C` (configuration not stated), the “-logMIC” value in the assay with Staphylococcus aureus turned out to be 4.492; with Brevundimonas diminuta, 4.287; in the assay with Escherichia coli, 4.253; with Bacillus subtilis, 4.221.
Regarding `CC(=O)C1(/N=N/c2ccc(Cl)cc2)N=C1C` (configuration not stated), the “-logMIC” value amounted to 4.014 with Staphylococcus aureus, 4.096 in the assay with Brevundimonas diminuta and 4.078 with Bacillus subtilis.
For the molecule `CC(=O)C1(/N=N/c2cccc(C)c2)N=C1C` (configuration not stated), the results for the “-logMIC” value with Staphylococcus aureus and in the assay with Bacillus subtilis were 4.298 and 4.213, respectively.
For the molecule `CC(=O)C1(/N=N/c2cccc(Br)c2)N=C1C` (configuration not stated), the “-logMIC” value came to 4.457 in the assay on Staphylococcus aureus, 4.441 in the assay with Escherichia coli and 4.425 in the assay with Bacillus subtilis.
Take `CC(=O)C1(/N=N/c2cccc(Cl)c2)N=C1C` (configuration not stated): the “-logMIC” value with Staphylococcus aureus was determined as 4.324; in the assay with Brevundimonas diminuta, 4.325; in the assay with Bacillus subtilis it was 4.315.
In the case of `COc1cccc(/N=N/C2(C(C)=O)N=C2C)c1` (configuration not stated), the “-logMIC” value in the assay with Staphylococcus aureus is reported as 4.328; in the assay with Brevundimonas diminuta, 4.377; with Bacillus subtilis, 4.366.
